Source: patent US10487093B2, “Heterocyclic compounds, in particular 2-oxo-4,4,5,5,6,6,7,7-octahydrobenzoxazole derivatives, and their use as antibacterial compounds” (priority 2016, dated 2019)
Values after ≈ are worked out from the molar mass of the structure shown.

Assays:
[1] = test system: Acinetobacter baumannii NCTC 13420; assay: MIC, broth microdilution (CLSI) versus planktonic bacteria; format: cell-based; conditions: NCTC13420; Acinetobacter baumannii NCTC 13420; 16-20 h; mode of three independent experiments; read-out: MIC, Ab NCTC 13420
[2] = test system: Enterobacter cloacae NCTC 13406; assay: as above; format: cell-based; conditions: NCTC13406; Enterobacter cloacae NCTC 13406; 16-20 h; mode of three independent experiments; read-out: MIC, Ecl NCTC 13406
[3] = test system: Escherichia coli ATCC 25922; assay: as above; format: cell-based; conditions: ATCC25922; Escherichia coli ATCC 25922; 16-20 h; mode of three independent experiments; read-out: MIC, Ec ATCC 25922
[4] = test system: Haemophilus influenzae ATCC 49247; assay: as above; format: cell-based; conditions: ATCC49247; Haemophilus influenzae ATCC 49247; 16-20 h; mode of three independent experiments; read-out: MIC, Hi ATCC 49247
[5] = test system: Pseudomonas aeruginosa ATCC 27853; assay: as above; format: cell-based; conditions: ATCC27853; Pseudomonas aeruginosa ATCC 27853; 16-20 h; mode of three independent experiments; read-out: MIC, Pa ATCC 27853
[6] = test system: Staphylococcus aureus ATCC 29213; assay: as above; format: cell-based; conditions: ATCC29213; Staphylococcus aureus ATCC 29213; 16-20 h; mode of three independent experiments; read-out: MIC, Sa ATCC 29213
[7] = test system: Streptococcus pneumoniae ATCC 49619; assay: as above; format: cell-based; conditions: ATCC49619; Streptococcus pneumoniae ATCC 49619; 16-20 h; mode of three independent experiments; read-out: MIC, Sp ATCC 49619
[8] = test system: human hepatic cell line (HepG2 ATCC HB-8065); assay: Human cell viability assay (CellTiter-Glo); conditions: Homo sapiens, HepG2, 24 h, read-out: IC50 (μg/mL) HepG2

| MIC [1] | MIC [5] | Structure (SMILES) | MIC [2] | MIC [3] | MIC [4] | MIC [6] | MIC [7] | IC50 [8] |
| --- | --- | --- | --- | --- | --- | --- | --- | --- |
| 10 to 100 µg/mL (≈ 19.7 to 197 µM) | 1 to 10 µg/mL (≈ 1.97 to 19.7 µM) | COc1cnc2ccc(=O)n(CCN[C@@H]3CC[C@@H]4[C@@H](C3)OC(=O)N4c3ncc4c(n3)NC(=O)CO4)c2c1 [Compound 41, 1-(2-{[(3aR,6R,7aR)-2-oxo-3-{7-oxo-6H,7H,8H-pyrimido[5,4-b][1,4]oxazin-2-yl}-octahydro-1,3-benzoxazol-6-yl]amino}ethyl)-7-methoxy-1,2-dihydro-1,5-naphthyridin-2-one] | 1 to 10 µg/mL (≈ 1.97 to 19.7 µM) | < 1 µg/mL |  | < 1 µg/mL | < 1 µg/mL |  |
| < 1 µg/mL | 1 to 10 µg/mL (≈ 1.86 to 18.6 µM) | COc1cnc2ccc(=O)n(CCCN[C@H]3CC[C@H]4[C@H](C3)OC(=O)N4c3ccc4c(n3)NC(=O)CS4)c2c1 [Compound 96, 1-(3-{[(3aS,6S,7aS)-2-oxo-3-{3-oxo-2H,3H,4H-pyrido[3,2-b][1,4]thiazin-6-yl}-octahydro-1,3-benzoxazol-6-yl]amino}propyl)-7-methoxy-1,2-dihydro-1,5-naphthyridin-2-one] | < 1 µg/mL |  | < 1 µg/mL | < 1 µg/mL |  |  |
| 10 to 100 µg/mL (≈ 19.7 to 197 µM) | 10 to 100 µg/mL (≈ 19.7 to 197 µM) | COc1ncc2ccc(=O)n(CCN[C@@H]3CC[C@@H]4[C@@H](C3)OC(=O)N4c3ncc4c(n3)NC(=O)CO4)c2n1 [Compound 33, (3aR,6R,7aR)-6-[(2-{2-methoxy-7-oxo-7H,8H-pyrido[2,3-d]pyrimidin-8-yl}ethyl)amino]-3-{7-oxo-6H,7H,8H-pyrimido[5,4-b][1,4]oxazin-2-yl}-octahydro-1,3-benzoxazol-2-one] | 1 to 10 µg/mL (≈ 1.97 to 19.7 µM) | < 1 µg/mL | 1 to 10 µg/mL (≈ 1.97 to 19.7 µM) | < 1 µg/mL | < 1 µg/mL |  |
| 1 to 10 µg/mL (≈ 1.97 to 19.7 µM) | 10 to 100 µg/mL (≈ 19.7 to 197 µM) | COc1ncc2ccc(=O)n(CCN[C@H]3CC[C@H]4[C@H](C3)OC(=O)N4c3ccc4c(n3)NC(=O)CO4)c2n1 [Compound 52, (3aS,6S,7aS)-6-[(2-{2-methoxy-7-oxo-7H,8H-pyrido[2,3-d]pyrimidin-8-yl}ethyl)amino]-3-{3-oxo-2H,3H,4H-pyrido[3,2-b][1,4]oxazin-6-yl}-octahydro-1,3-benzoxazol-2-one] | 1 to 10 µg/mL (≈ 1.97 to 19.7 µM) | < 1 µg/mL | < 1 µg/mL | < 1 µg/mL | < 1 µg/mL |  |
| 1 to 10 µg/mL (≈ 1.99 to 19.9 µM) | 10 to 100 µg/mL (≈ 19.9 to 199 µM) | COc1cccc(-c2cccc(CN[C@H]3CC[C@H]4[C@H](C3)OC(=O)N4c3ccc4c(n3)NC(=O)CO4)c2)n1 [Compound 73, (3aS,6S,7aS)-6-({[3-(6-methoxypyridin-2-yl)phenyl]methyl}amino)-3-{3-oxo-2H,3H,4H-pyrido[3,2-b][1,4]oxazin-6-yl}-octahydro-1,3-benzoxazol-2-one] | 1 to 10 µg/mL (≈ 1.99 to 19.9 µM) | < 1 µg/mL | 1 to 10 µg/mL (≈ 1.99 to 19.9 µM) | < 1 µg/mL | 1 to 10 µg/mL (≈ 1.99 to 19.9 µM) |  |
| 10 to 100 µg/mL (≈ 18.3 to 183 µM) | 1 to 10 µg/mL (≈ 1.83 to 18.3 µM) | O=C1COc2ccc(N3C(=O)O[C@H]4C[C@@H](NCCn5c(=O)ccc6ccc(OC7CNC7)cc65)CC[C@@H]43)nc2N1 [Compound 103, 1-(2-{[(3aS,6S,7aS)-2-oxo-3-{3-oxo-2H,3H,4H-pyrido[3,2-b][1,4]oxazin-6-yl}-octahydro-1,3-benzoxazol-6-yl]amino}ethyl)-7-(azetidin-3-yloxy)-1,2-dihydroquinolin-2-one] |  | 1 to 10 µg/mL (≈ 1.83 to 18.3 µM) |  |  | 1 to 10 µg/mL (≈ 1.83 to 18.3 µM) |  |
| 1 to 10 µg/mL (≈ 1.65 to 16.5 µM) | 10 to 100 µg/mL (≈ 16.5 to 165 µM) | O=C1COc2ccc(N3C(=O)O[C@H]4C[C@@H](NCCn5c(=O)ccc6ccc(OCCN7CCOCC7)cc65)CC[C@@H]43)nc2N1 [Compound 97, 1-(2-{[(3aS,6S,7aS)-2-oxo-3-{3-oxo-2H,3H,4H-pyrido[3,2-b][1,4]oxazin-6-yl}-octahydro-1,3-benzoxazol-6-yl]amino}ethyl)-7-[2-(morpholin-4-yl)ethoxy]-1,2-dihydroquinolin-2-one] | 10 to 100 µg/mL (≈ 16.5 to 165 µM) | 1 to 10 µg/mL (≈ 1.65 to 16.5 µM) | 1 to 10 µg/mL (≈ 1.65 to 16.5 µM) | < 1 µg/mL | 1 to 10 µg/mL (≈ 1.65 to 16.5 µM) |  |
| 1 to 10 µg/mL (≈ 2 to 20 µM) | > 100 µg/mL | N#Cc1ccc2c(ccc(=O)n2CCN[C@H]2CC[C@H]3[C@H](C2)OC(=O)N3c2ccc3c(n2)NC(=O)CO3)c1 [Compound 107, 1-(2-{[(3aS,6S,7aS)-2-oxo-3-{3-oxo-2H,3H,4H-pyrido[3,2-b][1,4]oxazin-6-yl}-octahydro-1,3-benzoxazol-6-yl]amino}ethyl)-2-oxo-1,2-dihydroquinoline-6-carbonitrile] | 10 to 100 µg/mL (≈ 20 to 200 µM) | 1 to 10 µg/mL (≈ 2 to 20 µM) | 1 to 10 µg/mL (≈ 2 to 20 µM) | 1 to 10 µg/mL (≈ 2 to 20 µM) | 1 to 10 µg/mL (≈ 2 to 20 µM) |  |

| Structure (SMILES) | MIC [1] | MIC [5] | MIC [2] | MIC [3] | MIC [4] | MIC [6] | MIC [7] | IC50 [8] |
| --- | --- | --- | --- | --- | --- | --- | --- | --- |
| Cn1ccc(-c2ccc3ccc(=O)n(CCN[C@H]4CC[C@H]5[C@H](C4)OC(=O)N5c4ccc5c(n4)NC(=O)CO5)c3c2)n1 [Compound 104, 1-(2-{[(3aS,6S,7aS)-2-oxo-3-{3-oxo-2H,3H,4H-pyrido[3,2-b][1,4]oxazin-6-yl}-octahydro-1,3-benzoxazol-6-yl]amino}ethyl)-7-(1-methyl-1H-pyrazol-3-yl)-1,2-dihydroquinolin-2-one] | < 1 µg/mL | 10 to 100 µg/mL (≈ 18 to 180 µM) | 1 to 10 µg/mL (≈ 1.8 to 18 µM) | 1 to 10 µg/mL (≈ 1.8 to 18 µM) | < 1 µg/mL | < 1 µg/mL | < 1 µg/mL | 10 to 100 µg/mL (≈ 18 to 180 µM) |
| O=C1COc2ccc(N3C(=O)O[C@@H]4C[C@@H](NCCn5c(=O)ccc6ncc(F)cc65)CC[C@@H]43)nc2N1 [Compound 28, 1-(2-{[(3aS,6S,7aR)-2-oxo-3-{3-oxo-2H,3H,4H-pyrido[3,2-b][1,4]oxazin-6-yl}-octahydro-1,3-benzoxazol-6-yl]amino}ethyl)-7-fluoro-1,2-dihydro-1,5-naphthyridin-2-one] | 1 to 10 µg/mL (≈ 2.02 to 20.2 µM) | 1 to 10 µg/mL (≈ 2.02 to 20.2 µM) | 1 to 10 µg/mL (≈ 2.02 to 20.2 µM) | < 1 µg/mL | 1 to 10 µg/mL (≈ 2.02 to 20.2 µM) | < 1 µg/mL | < 1 µg/mL | > 100 µg/mL |
| N#Cc1cnc2ccc(=O)n(CCN[C@@H]3CC[C@@H]4[C@@H](C3)OC(=O)N4c3ccc4c(n3)NC(=O)CO4)c2c1 [Compound 50, 5-(2-{[(3aR,6R,7aR)-2-oxo-3-{3-oxo-2H,3H,4H-pyrido[3,2-b][1,4]oxazin-6-yl}-octahydro-1,3-benzoxazol-6-yl]amino}ethyl)-6-oxo-5,6-dihydro-1,5-naphthyridine-3-carbonitrile] | 1 to 10 µg/mL (≈ 1.99 to 19.9 µM) | < 1 µg/mL | 1 to 10 µg/mL (≈ 1.99 to 19.9 µM) | < 1 µg/mL | < 1 µg/mL | < 1 µg/mL | < 1 µg/mL | > 100 µg/mL |
| O=C1COc2cnc(N3C(=O)O[C@H]4C[C@@H](NCCn5c(=O)cnc6cc(F)c(F)cc65)CC[C@@H]43)nc2N1 [Compound 66, 1-(2-{[(3aS,6S,7aS)-2-oxo-3-{7-oxo-6H,7H,8H-pyrimido[5,4-b][1,4]oxazin-2-yl}-octahydro-1,3-benzoxazol-6-yl]amino}ethyl)-6,7-difluoro-1,2-dihydroquinoxalin-2-one] | 1 to 10 µg/mL (≈ 1.95 to 19.5 µM) | > 100 µg/mL | 10 to 100 µg/mL (≈ 19.5 to 195 µM) | 1 to 10 µg/mL (≈ 1.95 to 19.5 µM) | 1 to 10 µg/mL (≈ 1.95 to 19.5 µM) | < 1 µg/mL | < 1 µg/mL | > 100 µg/mL |
| N#Cc1ccc2ccc(=O)n(CCN(CCN)[C@@H]3CC[C@@H]4[C@@H](C3)OC(=O)N4c3ccc4c(n3)NC(=O)CO4)c2c1 [Compound 19, 1-(2-{[(3aR,6R,7aR)-2-oxo-3-{3-oxo-2H,3H,4H-pyrido[3,2-b][1,4]oxazin-6-yl}-octahydro-1,3-benzoxazol-6-yl](2-aminoethyl)amino}ethyl)-2-oxo-1,2-dihydroquinoline-7-carbonitrile] | 10 to 100 µg/mL (≈ 18.4 to 184 µM) | 10 to 100 µg/mL (≈ 18.4 to 184 µM) | > 100 µg/mL | 10 to 100 µg/mL (≈ 18.4 to 184 µM) | 10 to 100 µg/mL (≈ 18.4 to 184 µM) | < 1 µg/mL | > 100 µg/mL | > 100 µg/mL |
| CSc1ncc2ccc(=O)n(CCN[C@H]3CC[C@H]4[C@@H](C3)OC(=O)N4c3ccc4c(n3)NC(=O)CO4)c2n1 [Compound 53, (3aS,6S,7aR)-6-({2-[2-(methylsulfanyl)-7-oxo-7H,8H-pyrido[2,3-d]pyrimidin-8-yl]ethyl}amino)-3-{3-oxo-2H,3H,4H-pyrido[3,2-b][1,4]oxazin-6-yl}-octahydro-1,3-benzoxazol-2-one] | 1 to 10 µg/mL (≈ 1.91 to 19.1 µM) | 10 to 100 µg/mL (≈ 19.1 to 191 µM) | 10 to 100 µg/mL (≈ 19.1 to 191 µM) | 1 to 10 µg/mL (≈ 1.91 to 19.1 µM) | 1 to 10 µg/mL (≈ 1.91 to 19.1 µM) | < 1 µg/mL | 1 to 10 µg/mL (≈ 1.91 to 19.1 µM) | > 100 µg/mL |
| COc1ccc2ccc(=O)n(CCN[C@H]3CC[C@H]4[C@H](C3)OC(=O)N4c3ccc4c(n3)NC(=O)C(C)(C)O4)c2n1 [Compound 48, 1-(2-{[(3aS,6S,7aS)-3-{2,2-dimethyl-3-oxo-2H,3H,4H-pyrido[3,2-b][1,4]oxazin-6-yl}-2-oxo-octahydro-1,3-benzoxazol-6-yl]amino}ethyl)-7-methoxy-1,2-dihydro-1,8-naphthyridin-2-one] | < 1 µg/mL | 10 to 100 µg/mL (≈ 18.7 to 187 µM) | 10 to 100 µg/mL (≈ 18.7 to 187 µM) | 1 to 10 µg/mL (≈ 1.87 to 18.7 µM) | 1 to 10 µg/mL (≈ 1.87 to 18.7 µM) | < 1 µg/mL | < 1 µg/mL | > 100 µg/mL |
